Like-named read-outs stand apart in the source and are kept apart here.
Experiments:
[1] = decimal logarithm of n-octanol/water partition coefficient; cited from earlier work
[2] = tested on: LPS-induced acute lung injury; conditions: cited from earlier work
CD83 = conditions: cited from earlier work
IL-6 secretion = conditions: cellular models, majority of cases; cited from earlier work
[3] = systemic exposure after i.p. and oral application of CBD in mice (Deiana et al. 2012); assay type: in vivo; conditions: 20 mg/kg, assuming dose-proportional plasma concentrations
Procedure: A comparative investigation for systemic exposure after i.p. and oral application of CBD in mice and rats has shown that 120 mg/kg as a single dose leads to a maximum plasma concentration of 14,000 ng/ml in mice (S. Deiana et al. (2012). Plasma and brain pharmacokinetic profile of cannabidiol (CBD), cannabidivarine (CBDV), Delta(9)-tetrahydrocannabivarin (THCV) and cannabigerol (CBG) in rats and mice following oral and intraperitoneal administration and CBD action on obsessive-compulsive behaviour. Psychopharmacology (Bed) 219(3): 859-73).

[4] = tested on: chemically induced acute hepatitis; conditions: mice, 25 mg/kg; cited from earlier work
[5] = tested on: activated memory T cell line; conditions: 1-5 μmol/l, cited from earlier work
NK, NKT, T and B cells = conditions: healthy rats, cited from earlier work
[6] = mice, 120 mg/kg single dose; cited from earlier work
human mononuclear cells = conditions: nanomolar or micromolar concentrations; cited from earlier work
microglial cells = conditions: 1-16 μmol/l; cited from earlier work
[7] = tested on: ischemia-reperfusion-induced kidney injury; conditions: mice, 10 mg/kg after induced kidney injury; cited from earlier work
human neutrophils = conditions: cited from earlier work
[8] = tested on: LPS-induced acute lung injury; conditions: mice, 20 mg/kg, 6 h after LPS; cited from earlier work
IL-6 receptor = molecular target: T1, IL-6 receptor (Homo sapiens, UniProt P08887); conditions: patients with severe SARS-CoV-2 pneumonia, preliminary clinical data; cited from earlier work
T1 construct: host or cells: patients (in vivo)
T1 sequence (P08887 20-468): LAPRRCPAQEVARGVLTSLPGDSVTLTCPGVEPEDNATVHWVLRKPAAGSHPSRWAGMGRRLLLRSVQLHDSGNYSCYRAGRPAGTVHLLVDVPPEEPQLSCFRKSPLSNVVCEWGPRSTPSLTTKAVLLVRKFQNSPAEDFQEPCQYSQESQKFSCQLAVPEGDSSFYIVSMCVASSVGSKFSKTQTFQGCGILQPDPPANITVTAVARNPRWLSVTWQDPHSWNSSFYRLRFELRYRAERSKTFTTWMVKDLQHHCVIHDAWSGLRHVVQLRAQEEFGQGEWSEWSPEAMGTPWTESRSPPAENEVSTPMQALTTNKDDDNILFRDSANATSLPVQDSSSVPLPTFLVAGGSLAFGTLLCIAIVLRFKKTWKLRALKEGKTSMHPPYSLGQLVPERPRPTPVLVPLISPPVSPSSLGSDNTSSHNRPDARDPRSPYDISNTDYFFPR

[9] = mice, 0.3-80 mg/kg i.p. 60 min before LPS

Compound: C=C(C)[C@@H]1CCC(C)=C[C@H]1c1c(O)cc(CCCCC)cc1O [CBD, 2-[(1R,6R)-3-methyl-6-(1-methylethenyl)-2-cyclohexen-1-yl]-5-pentyl-1,3-benzenediol]
- log P [1]: about 6.1
- number of leukocytes including macrophages and neutrophils in bronchoalveolar lavage fluid ([2]; mice, 20 mg/kg, after LPS-induced lung inflammation): decreases
- myeloperoxidase activity [2, 9]: significantly decreased
- pro-inflammatory cytokine production including TNF-α and IL-6 [2, 9]: significantly decreased
- total leukocytes migration [2, 9]: significantly decreased
- vascular permeability [2, 9]: significantly decreased
- dose at which effects reached a nearly maximum extent ([2]; prophylactic application, i.p.): 20 mg/kg
- CD83 dendritic cell activation marker (CD83; dendritic cells derived from healthy individuals): not
- CD83 dendritic cell activation marker (CD83; dendritic cells derived from individuals with HIV infection): suppresses
- effective concentration, suppressive effect on IL-6 secretion (IL-6 secretion): ~5 µM
- target peak exposure [3]: 2,300 ng/ml
- expression of MDSCs [4]: induces
- pro-inflammatory cytokines such as IL-2, TNF-α and IL-6 [4]: reduction
- IL-6 production and secretion [5]: decreased
- production of IL-10 [5]: increased
- autoantigen-specific Th17 cell phenotype (IL-17) ([5]; dose-dependently): reduced
- numbers of NK cells and NKT cells (NK, NKT, T and B cells; 2.5 mg/kg per day): increased
- numbers of NK cells and NKT cells (NK, NKT, T and B cells; 5 mg/kg per day): not affected
- number of T cells including T helper cells and cytotoxic T cells and of B cells (NK, NKT, T and B cells; daily 5 mg/kg): significantly reduced
- maximum plasma concentration [6]: 14,000 ng/ml
- release of pro-inflammatory cytokines (human mononuclear cells): suppressed
- apoptosis in microglial cells (microglial cells): induces apoptosis
- decreased Treg17 and increased Th17 levels [7]: reversed
- effect on induced kidney injury [7]: renoprotective
- migration of human neutrophils (human neutrophils): inhibits
- leukocyte migration (neutrophil, macrophages and lymphocytes) into the lungs [8]: decreased
- mechanical lung function [8]: improved
- myeloperoxidase activity in the lung tissue [8]: decreased
- production of proinflammatory cytokines/chemokines [8]: reduced
- vascular permeability [8]: reduced

Compound: tocilizumab: humanized monoclonal antibody against the IL-6 receptor
- clinical effect of IL-6 blockade therapy (IL-6 receptor): beneficial effects

— patent publication US20230181484A1, “Uses and Formulations of Cannabinoids” (priority 2020, published 2023)
